Non-standard residues stand in square brackets, D forms with d. Residues, ends and D or L forms follow the SMILES beside them. No end group written: not given here.
Assays:
[1] = tested on: A549 lung adenocarcinoma cells; test: in vitro; type: cell-based, human
Experimental: (§1) The peptide cytotoxicity against human cells was evaluated using CCD-34Lu-lung fibroblasts and A549-lung adenocarcinoma cells. Moreover, 6 × 10^3 cells in DMEM medium added with 10% FBS were seeded in 96-well sterile plates. After 24 h, cells were incubated with increasing concentrations of peptide (final concentrations of 5, 10, 25, 50, and 100 µM, with an additional concentration of 200 µM in CCD-34Lu) for 24 h at 37 °C (three replicates per condition). Cell viability was measured by removing the exhausted medium, adding 100 µL of DMEM and 20 µL of the MTS solution (Promega). Plates were incubated at 37 °C for 20 min until the complete conversion of the compound. The absorbance was measured at 492 nm using a microplate reader. Cell viability was calculated using the formula: Viability (%)=ODCecB−OD0/ODCtrl−OD0×100, where ODCecB is the OD in the presence of the peptide, ODCtrl is the OD of cells without the peptide, and OD0 is the background absorbance (wells with only medium and MTS compound). The experiment was performed at least twice.

[2] = tested on: CCD-34Lu lung fibroblasts; test: in vitro; type: cell-based, human
Experimental: as §1

[3] = tested on: P. aeruginosa ATCC 25668 (lasI, rpoS, fimX, pslA, pelA, algD); test: Real-time qPCR of genes involved in biofilm formation; type: cell-based, Pseudomonas aeruginosa; details: 20 h; 1/2 MIC L- or 1/4 MIC D-Q53 CecB; normalised to rplU
Experimental: Bacteria were collected after centrifugation and stored in Trizol Reagent (Ambion, Waltham, MA, USA) at −80 °C, until use. Total RNA was extracted using the Direct-zol RNA MiniPrep kit (Zymo Research, Irvine, CA, USA). The complementary DNA (cDNA) was synthesized using the Maxima™ H Minus cDNA Synthesis Master Mix with dsDNase (Molecular biology, Thermo Scientific). Each qPCR reaction was performed in triplicate, using the GoTaq qPCR Master Mix (Promega, Madison, WI, USA) and a CFX96 Real-Time PCR Detection System (Bio-Rad, Hercules, CA, USA), following the manufacturer’s instructions. The amplification conditions were 95 °C 2 min, (15 s at 95 °C, 1 min at the appropriate annealing temperature Ta, as in Table 5) ×40 cycles. The rplU gene, coding the 50 S ribosomal protein, was used to normalize qPCR data as in [36]. Fold changes were calculated by the 2^−ΔΔCT analysis method.

[4] = tested on: P. aeruginosa biofilms (ATCC 25668); test: Confocal live/dead staining of biofilm-embedded cells; type: cell-based, Pseudomonas aeruginosa; details: 1 h treatment with 1 MIC (2.2 µM) of 24 h-old biofilm; SYTO 9 / Propidium Iodide
Experimental: Bacteria cells (1 × 10^6 cells/mL) were grown in Permanox four-wells chamber slide systems (1.8 cm^2/well; Nunc® Lab-Tek® Chamber Slide™ system) at 37 °C for 24 h without agitation to allow biofilm formation. After washing, biofilms were treated with 2.2 μM L- or D-Q53 CecB peptide for 1 h at 37 °C without agitation. Negative controls, treated with LB only, were followed in parallel.
To visualize live/dead bacteria, samples were stained with 12. 5 μM SYTO™ 9 (Thermo Fisher Scientific) (green, total cells) and 70 μM Propidium Iodide (Merck) (red, dead cells) for 30 min. After washing with PBS, samples were mounted in VECTASHIELD® mounting medium (Vector Laboratories) and observed using a Leica TCS SP5 II confocal microscope, using a ×63 oil immersion objective and a digital magnification of ×3. Optical sections (Z-series) were taken at 0.13 μm intervals. For each condition, experiments were repeated at least twice.
To detect bacteria (green), excitation and emission wavelengths were 488 and 500–530 nm, respectively. EPS was visualized using a 405 nm wavelength for excitation and 413–480 nm for emission (blue); to detect proteins or Propidium Iodide (red), a 543 nm wavelength for excitation and 590–610 nm for emission were used. Post-acquisition analyses were performed with Fiji (http://fiji.sc/wiki/index.php, downloaded on 4 April 2022). […]

P. aeruginosa ATCC 25668 = test: CFU assay of medium over treated 24 h old biofilm; type: cell-based, Pseudomonas aeruginosa; details: for mean CFUs/mL decrement vs untreated control: 1 MIC, 1 h; for living bacterial cells in the medium, Mean ± SEM: 1 h treatment of 24 h-old biofilm with 1 MIC (2.2 μM), four experiments, control 2.67 ± 2.67 × 10^15
[5] = tested on: T1, human neutrophil elastase; test: Enzymatic digestion with human neutrophil elastase, RP-HPLC; type: in vitro ADME; details: human, isolated enzyme elastase, pH 7.5
T1 construct: purchased Merck
Experimental: L- and D-Q53 CecB peptides, as well as the human LL-37 peptide (Merck, Burlington, MA, USA), were dissolved in 10 mM Tris-HCl, pH 7.5, at a final concentration of 1 mg/mL. Subsequently, 120 μL of each peptide solution were incubated at 37 °C with 20 U of human leukocyte elastase (Merck) or P. aeruginosa elastase (Elastin Products Company, Owensville, MO, USA) and 5 μL of 10 mM Tris-HCl, pH 7.5. At given time intervals (30, 60, 120, and 300 min), a volume corresponding to 30 μg of each peptide was diluted in 70 μL of 1% trifluoroacetic acid (TFA) to stop the reaction. Peptide suspensions,v without any enzyme (undigested controls), were processed in parallel. Each solution was analyzed by RP-HPLC, using a Phenomenex LC C18 analytical column (300 Å, […], 250 × 4.6 mm; Phenomenex, Torrance, CA, USA) and a Widepore C18 security guard cartridge (4 × 3.0 mm; Phenomenex, Torrance, CA, USA), in a 30 min-linear Acetonitrile (ACN) gradient (from 0% to 40% for L- and D-Q53 CecB peptides; from 20% to 60% for LL-37). A Waters Alliance 2695 Separations Module connected to a 996 PDA (Waters, Milford, MA, USA) was employed for RP-HPLC.

[6] = tested on: P. aeruginosa (non-mucoid: ATCC 27853; mucoid: ATCC 25668); set-up: method as in PMID 31045339; details: planktonic forms; cited from earlier work
Excerpt: (§2) We, therefore, determined the anti-Pseudomonas activity of D-Q53 CecB in comparison to the L- counterpart versus the planktonic forms of the same ATCC 27853 and ATCC 25668 strains, and a third POA1-L strain (Lausanne subline).

[7] = tested on: P. aeruginosa ATCC 27853 and ATCC 25668 strains; set-up: method as in PMID 31045339; details: planktonic forms; cited from earlier work
Excerpt: as §2

Row | Compound | cell viability ([1]; 50 µM) | cell viability ([1]; 100 µM) | cell viability ([2]; 50 µM) | cell viability ([2]; 100 µM) | cell viability ([2]; 200 µM) | expression level of fimX [3] | expression level of lasI [3] | expression level of rpoS [3] | expression of algD [3] | expression of pelA [3] | transcription of pslA [3] | red/green (dead/total) cell ratio vs untreated controls [4] | mean CFUs/mL decrement vs untreated control (P. aeruginosa ATCC 25668) | living bacterial cells in the medium, Mean ± SEM (P. aeruginosa ATCC 25668) | remaining at 5 h, 1 mg/mL [5] | MIC [6] | MBC [7]
1 | CC[C@@H](C)[C@@H](NC(=O)[C@@H](C)NC(=O)[C@@H](CCCCN)NC(=O)[C@@H](C)NC(=O)[C@@H](CO)NC(=O)CNC(=O)[C@@H](CC(C)C)NC(=O)[C@H](NC(=O)[C@@H](CCC(N)=O)NC(=O)[C@H](NC(=O)[C@@H](C)NC(=O)[C@H]1CCCN1C(=O)CNC(=O)[C@@H](C)NC(=O)[C@@H](CCCCN)NC(=O)[C@H](NC(=O)[C@H](NC(=O)CNC(=O)[C@@H](CC(=O)O)NC(=O)[C@@H](CCCNC(=N)N)NC(=O)[C@H](NC(=O)[C@@H](CC(N)=O)NC(=O)[C@@H](CCCNC(=N)N)NC(=O)CNC(=O)[C@@H](CCSC)NC(=O)[C@@H](CCCCN)NC(=O)[C@@H](CCC(=O)O)NC(=O)[C@H](NC(=O)[C@@H](CCCCN)NC(=O)[C@@H](CCCCN)NC(=O)[C@@H](Cc1ccccc1)NC(=O)[C@H](NC(=O)[C@@H](CCCCN)NC(=O)[C@@H](Cc1c[nH]c2ccccc12)NC(=O)[C@H](N)CCCNC(=N)N)[C@H](C)CC)[C@H](C)CC)[C@H](C)CC)[C@H](C)CC)C(C)C)[C@H](C)CC)C(C)C)C(N)=O [D-Q53 CecB] (H-[dR][dW][dK][dI][dF][dK][dK][dI][dE][dK][dM]G[dR][dN][dI][dR][dD]G[dI][dV][dK][dA]G[dP][dA][dI][dQ][dV][dL]G[dS][dA][dK][dA][dI]-NH2; N-terminus and C-terminus assumed) | ~ 79% | ~15% | ~ 85% | ~27% | ~4.5% | not significantly different | did not significantly alter | did not significantly alter | significantly lower | significantly lower | did not affect | Significant increments | 7 orders of magnitude | 6.70 ± 6.6 × 10^8 CFUs/mL | – | – | –
2 | RWKIFKKIEKMGRNIRDGIVKAGPAIQVLGSAKAI-NH2 [L-Q53 CecB] | – | – | – | – | – | not significantly different | did not significantly alter | did not significantly alter | None of the analyzed genes were altered | None of the analyzed genes were altered | did not affect | Significant increments | 10 orders of magnitude | 2.89 ± 2.38 × 10^5 CFUs/mL | 0.3% | 2.2 µM | 11 µM

Source: paper PMC10419416, “Fighting Pseudomonas aeruginosa Infections: Antibacterial and Antibiofilm Activity of D-Q53 CecB, a Synthetic Analog of a Silkworm Natural Cecropin B Variant” (International Journal of Molecular Sciences, 2023)
